Data from paper doi:10.1101/718940v1 (biorxiv, 2019).

Biological target: TENT4B (PAPD5) (Homo sapiens, UniProt Q8NDF8)
Assay: ATP depletion polyadenylation assay
Assay type: biochemical

Sequence of TENT4B (PAPD5) (Q8NDF8 whole entry): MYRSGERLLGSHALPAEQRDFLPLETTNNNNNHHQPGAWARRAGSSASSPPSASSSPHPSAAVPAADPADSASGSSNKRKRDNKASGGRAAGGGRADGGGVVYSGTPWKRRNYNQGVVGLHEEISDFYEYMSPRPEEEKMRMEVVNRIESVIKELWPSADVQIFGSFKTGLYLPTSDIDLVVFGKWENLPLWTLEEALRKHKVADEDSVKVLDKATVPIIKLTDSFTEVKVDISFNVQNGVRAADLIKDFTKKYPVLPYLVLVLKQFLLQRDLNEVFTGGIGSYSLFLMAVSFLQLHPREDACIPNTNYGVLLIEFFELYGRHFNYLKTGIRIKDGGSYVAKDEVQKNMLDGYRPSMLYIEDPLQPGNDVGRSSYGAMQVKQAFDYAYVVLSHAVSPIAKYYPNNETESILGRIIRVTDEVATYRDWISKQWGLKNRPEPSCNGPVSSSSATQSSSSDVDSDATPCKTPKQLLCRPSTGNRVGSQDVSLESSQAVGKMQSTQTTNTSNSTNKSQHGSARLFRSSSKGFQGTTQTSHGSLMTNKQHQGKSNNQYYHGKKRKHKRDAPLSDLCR

SMILES | IC50
COCCCOc1cc2c(cc1OC)-c1cc(=O)c(C(=O)O)cn1[C@H](C(C)C)C2 [RG7834] | 1.3 nM
COCCCOc1cc2c(cc1OC)-c1cc(=O)c(C(=O)O)cn1[C@@H](C(C)C)C2 [RO0321] | 76 nM
